PubChem BioAssay AID2060483 (Molecular Pharmacology Branch, DTP, NCI, 2025)
pIC50: −log10 of the molar value. Values joined by “and” are separate entries in the source; they are usually repeats but may differ in a detail not shown here. Equal entries are not always repeated. One block for each compound: values may come before it.

Tested on: K24384-001-R-PDC complex spheroids, viability
Test: Anticancer human tumor K24384-001-R-PDC patient-derived pancreatic adenocarcinoma cell line growth inhibition [GQUAD]
Conditions: for viability, T/C: stronger effect = lower value
Source text: DNA G-quadruplex Stabilizer Agents in Combinations in Complex Spheroids
A high-throughput screen of multi-cell type tumor spheroids was designed to identify active combinations of DNA G-quadruplex stabilizer agents and targeted small molecules. Complex spheroids include a stromal component modeled by human endothelial cells (HUVEC) and fibroblasts modeled by human mesenchymal stem cells (MSCs). The concentration ranges selected for each drug and investigational agent were based upon clinically achievable concentrations if the clinical Cmax of the agent was known.
Compounds. The drugs and investigational agents: pidnarulex (CX-5461; NSC782164), APTO-253 (NSC789042), BRACO-19 (NSC847499), peposertib (NSC802822), ceralasertib (NSC780249), elimusertib (NSC800525), camonsertib (NSC841442), AZD-1390 (NSC803789), olaparib (NSC753686), talazoparib (NSC767125), ART-558 (NSC835418), sotorasib (NSC818433), MRTX-1133 (NSC836407), SN-38 (NSC673596), topotecan (NSC609699), etoposide (NSC141540), doxorubicin (NSC123127), gemcitabine (NSC613327), 5-fluorouracil (NSC19893), paclitaxel (NSC125973), vemurafenib (NSC761431), panobinostat (NSC761190), R-306465 (JNJ-16241199; NSC773264), adavosertib (NSC754352), TP-3654 (NSC805149), carboplatin (NSC241240), KSQ-4279 (NSC840948), and staurosporine (NSC755774) were obtained from the National Cancer Institute (NCI) Developmental Therapeutics Program Chemical Repository (34). The FDA-approved anticancer drug set is available from the NCI Developmental Therapeutics Program. […] The stock solutions were prepared in dimethyl sulfoxide (DMSO, Sigma-Aldrich, St. Louis, MO, cat. D2650) at 800-fold the tested concentration and stored at -70 degrees C prior to their use. All drugs and investigational agents were tested over a range starting from a high concentration at or near the clinical Cmax and decreasing in half-log increments. If the clinical Cmax for an agent had not been determined, the highest concentration tested was 10 microM.
2.3 Cell Culture. All cells were maintained in an incubator at 37 degrees C and 5% CO2 with 95% humidity. The PDC lines were cultured according to standard operating procedures established by the NCI PDMR. All PDCs were thawed and cultured in Matrigel-coated flasks prepared with a working solution of 1X Ham's F-12 nutrient mix, without supplementation (Invitrogen, cat. 11765054), 100 U/mL penicillin-streptomycin (Invitrogen, cat. 15140122), and 2.5% Matrigel (Corning Inc., cat. 354248) for the first three passages. The 857933-349-R-J2-PDC line was cultured in 6C/Colon 1B media, which includes advanced DMEM/F-12 (Thermo Fisher Scientific, cat. 12634028), 10 mM HEPES (Thermo Fisher Scientific, cat. 15630080), 1X GlutaMAX supplement (Thermo Fisher Scientific, cat. 35050061), 0.1 mg/mL primocin (InvivoGen, cat. ant-pm-2), 10% defined fetal bovine serum, heat inactivated (HyClone Laboratories Inc., cat. SH30070.03HI), 50% L-WRN conditioned media (ATCC, cat. CRL-3276), 1.25 mM N-Acetyl-L-cysteine (Sigma-Aldrich, cat. A9165), 10 mM nicotinamide (Sigma-Aldrich, cat. N0636), 1X B-27 supplement (Thermo Fisher Scientific, cat. 17504044), 1X N-2 supplement (Thermo Fisher Scientific, cat. 17502048), 10 microM Y-27632 dihydrochloride (Tocris Bioscience, cat. 1254), and 50 ng/mL human EGF recombinant protein (Thermo Fisher Scientific, cat. PHG0311). The 485176-168-R4-J1-PDC line was cultured in Panc media, which includes all 6C/Colon 1B media components plus 100 ng/mL human FGF-10 (Thermo Fisher Scientific, cat. 100-26), 500 nM SB-431542 (Selleckchem, cat. S1067), and gastrin (Tocris, cat. 3006).
[…]

[1] = curve of first compound, second compound 0.0316 µM
[2] = curve of first compound, second compound 0.1 µM
[3] = curve of first compound, second compound 0.316 µM
[4] = curve of first compound, second compound 1 µM
[5] = curve of first compound, second compound 3.16 µM
[6] = curve of first compound, second compound 10 µM
[7] = second compound 0.0316 µM, first compound 0.0316 µM
[8] = second compound 0.0316 µM, first compound 0.1 µM
[9] = second compound 0.0316 µM, first compound 0.316 µM
[10] = second compound 0.0316 µM, first compound 1 µM
[11] = second compound 0.0316 µM, first compound 3.16 µM
[12] = second compound 0.0316 µM, first compound 10 µM
[13] = second compound 0.1 µM, first compound 0.0316 µM
[14] = second compound 0.1 µM, first compound 0.1 µM
[15] = second compound 0.1 µM, first compound 0.316 µM
[16] = second compound 0.1 µM, first compound 1 µM
[17] = second compound 0.1 µM, first compound 3.16 µM
[18] = second compound 0.1 µM, first compound 10 µM
[19] = second compound 0.316 µM, first compound 0.0316 µM
[20] = second compound 0.316 µM, first compound 0.1 µM
[21] = second compound 0.316 µM, first compound 0.316 µM
[22] = second compound 0.316 µM, first compound 1 µM
[23] = second compound 0.316 µM, first compound 3.16 µM
[24] = second compound 0.316 µM, first compound 10 µM
[25] = second compound 1 µM, first compound 0.0316 µM
[26] = second compound 1 µM, first compound 0.1 µM
[27] = second compound 1 µM, first compound 0.316 µM
[28] = second compound 1 µM, first compound 1 µM
[29] = second compound 1 µM, first compound 3.16 µM
[30] = second compound 1 µM, first compound 10 µM
[31] = second compound 3.16 µM, first compound 0.0316 µM
[32] = second compound 3.16 µM, first compound 0.1 µM
[33] = second compound 3.16 µM, first compound 0.316 µM
[34] = second compound 3.16 µM, first compound 1 µM
[35] = second compound 3.16 µM, first compound 3.16 µM
[36] = second compound 3.16 µM, first compound 10 µM
[37] = second compound 10 µM, first compound 0.0316 µM
[38] = second compound 10 µM, first compound 0.1 µM
[39] = second compound 10 µM, first compound 0.316 µM
[40] = second compound 10 µM, first compound 1 µM
[41] = second compound 10 µM, first compound 3.16 µM
[42] = second compound 10 µM, first compound 10 µM
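Also: spheroids exposed to compounds for seven days.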

- pIC50 [1]: < 5.00
- pIC50 [2]: < 5.00
- pIC50 [3]: > 7.50
- pIC50 [4]: > 7.50
- pIC50 [5]: > 7.50
- pIC50 [6]: > 7.50
SMILES: COc1ncnc(C2CC2)c1-c1ncc2cnn(Cc3ccc(-c4nc(C(F)(F)F)cn4C(C)C)cc3)c2n1 + Cc1cnc(CNC(=O)c2c(=O)c3ccc(N4CCCN(C)CC4)nc3n3c2sc2ccccc23)cn1
- viability, T/C [7]: 85.9%
- viability, T/C [8]: 90.3%
- viability, T/C [9]: 78%
- viability, T/C [10]: 84.6%
- viability, T/C [11]: 69.1%
- viability, T/C [12]: 94.5%
- viability, T/C [13]: 46.1%
- viability, T/C [14]: 71%
- viability, T/C [15]: 71.6%
- viability, T/C [16]: 52.2%
- viability, T/C [17]: 57.4%
- viability, T/C [18]: 79.5%
- viability, T/C [19]: 44.5%
- viability, T/C [20]: 43.5%
- viability, T/C [21]: 43.3%
- viability, T/C [22]: 43.2%
- viability, T/C [23]: 65.1%
- viability, T/C [24]: 46.4%
- viability, T/C [25]: 43.6%
- viability, T/C [26]: 46.7%
- viability, T/C [27]: 41%
- viability, T/C [28]: 44.7%
- viability, T/C [29]: 42.9%
- viability, T/C [30]: 36.1%
- viability, T/C [31]: 31.5%
- viability, T/C [32]: 34%
- viability, T/C [33]: 33%
- viability, T/C [34]: 42.1%
- viability, T/C [35]: 39.1%
- viability, T/C [36]: 29%
- viability, T/C [37]: 24%
- viability, T/C [38]: 13.7%
- viability, T/C [39]: 23.1%
- viability, T/C [40]: 20.8%
- viability, T/C [41]: 17.1%
- viability, T/C [42]: 0.33%

- pIC50 (curve of compound): 6.55 and 6.97 and 6.27
SMILES: Nc1ccn(C2OC(CO)C(O)C2(F)F)c(=O)n1 (stereo unspecified)
- viability, T/C (compound 0.0316 µM): 84.3% and 75.7% and 81.2%
- viability, T/C (compound 0.1 µM): 63.9% and 51.3% and 63.6%
- viability, T/C (compound 0.316 µM): 50% and 35.2% and 65.7%
- viability, T/C (compound 1 µM): 34.6% and 28.7% and 32.3%
- viability, T/C (compound 3.16 µM): 21.7% and 26.4% and 21.4%
- viability, T/C (compound 10 µM): 15.8% and 21.2% and 19.7%

SMILES: COc1ncnc(C2CC2)c1-c1ncc2cnn(Cc3ccc(-c4nc(C(F)(F)F)cn4C(C)C)cc3)c2n1 + CN(C)c1ccc(Nc2c3ccc(NC(=O)CCN4CCCC4)cc3nc3cc(NC(=O)CCN4CCCC4)ccc23)cc1
- pIC50 [1]: < 5.00
- pIC50 [2]: < 5.00
- pIC50 [3]: < 5.00
- pIC50 [4]: < 5.00
- pIC50 [5]: < 5.00
- pIC50 [6]: 5.16
- viability, T/C [7]: 85%
- viability, T/C [8]: 107%
- viability, T/C [9]: 107%
- viability, T/C [10]: 96.9%
- viability, T/C [11]: 83.6%
- viability, T/C [12]: 104%
- viability, T/C [13]: 73.9%
- viability, T/C [14]: 86.3%
- viability, T/C [15]: 100%
- viability, T/C [16]: 86.1%
- viability, T/C [17]: 96.7%
- viability, T/C [18]: 110%
- viability, T/C [19]: 79.9%
- viability, T/C [20]: 90.7%
- viability, T/C [21]: 77%
- viability, T/C [22]: 102%
- viability, T/C [23]: 97.2%
- viability, T/C [24]: 93.5%
- viability, T/C [25]: 88.1%
- viability, T/C [26]: 84.2%
- viability, T/C [27]: 88.6%
- viability, T/C [28]: 95.6%
- viability, T/C [29]: 73.7%
- viability, T/C [30]: 88.6%
- viability, T/C [31]: 85.1%
- viability, T/C [32]: 112%
- viability, T/C [33]: 85.6%
- viability, T/C [34]: 79.1%
- viability, T/C [35]: 86.9%
- viability, T/C [36]: 91.8%
- viability, T/C [37]: 65.7%
- viability, T/C [38]: 99.2%
- viability, T/C [39]: 79.2%
- viability, T/C [40]: 88%
- viability, T/C [41]: 70.4%
- viability, T/C [42]: 40.6%
